The target of data set [1] is T1, PARP (Homo sapiens, UniProt P09874).
T1 construct: purchased Trevigen 4684-096-01 (enzyme); kit 4684-096-K HT
Put plainly: PARP ELISA colorimetric assay of inhibition of PARP catalytic activity (IC50). It is filed as biochemical. To be noted: pIC50=-log(IC50), IC50 in molar concentration; ELISA-based PARP kit, 10 minutes of catalysis. In a few lines:
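Human PARP was added as a 0.1 nM solution to histone-coated wells with compound for a 10-min ambient preincubation. The reaction was started with 100 μM NAD+ solution plus activated DNA and run 10 min. PAR formation was detected by anti-PAR ELISA, colorimetric. IC50 came from a 12-point, 3-fold gradient fitted by nonlinear least squares to a Hill equation.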

For data set [2], the system named is Jurkat cell line. Put plainly: PARP cellular chemopotentiation assay (MTS cell viability with and without TMZ). In kind it is cell-based. To be noted: ratio of EC50 for inhibition of cell viability without and with 100 μM TMZ; Jurkat cells, 96 hours of treatment. In a few lines: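 Jurkat cells, 10,000/well, pre-cultured 24 h, then treated 96 h with serial compound dilutions (0.5% DMSO) with or without 100 μM TMZ. Viability by MTS conversion (OD490), normalized to DMSO controls; EC50 from curve fits, PF50 = EC50 without TMZ / EC50 with TMZ.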

Data set [3] deals with T2, catalytic domain of Human PARP (Homo sapiens, UniProt P09874).
T2 construct: The catalytic domain of Human PARP was cloned and prepared; made in house
Put plainly: Biacore surface plasmon resonance affinity assay (dissociation constant KD). It is filed as binding. Particulars: pKD=-log(KD), KD in molar concentration; Biacore T100, 25° C. The procedure: Dissociation Constant (KD) from Surface Plasmon Resonance
The catalytic domain of Human PARP was cloned and prepared as described in Kinoshita, T.; Nakanishi, I.; Warizaya, M.; Iwashita, A.; Kido, Y.; Hattori, K. and Fujii, T. 2006 FEBS Letters 556, 43-46. Purified enzyme was stored at −80° C. in 25 mM Tris(hydroxymethyl)aminomethane (Tris) pH 7.4, 150 mM NaCl, 2 mM dithiothreitol (DTT) at a concentration of 6 mg/ml.
Biacore affinity assays for test compounds were conducted on a Biacore T100 (GE Healthcare) as follows. A Series S Sensor Chip CM5 (part number BR-1006-68, GE Healthcare) was activated for amide coupling with an Amine Coupling Kit (part number BR-1000-50, GE Healthcare) as described by the manufacturer. The mobile phase buffer consisted of Biacore buffer HBS-P (part number BR-1003-68, GE Healthcare) supplemented with 1% v/v dimethylsulfoxide (DMSO), 0.5 mM Tris(2-carboxyethyl)phosphine hydrochloride (TCEP), and 5 mM MgCl2. Enzyme samples (2 μl/6 mg/ml) stored at −80° C. were diluted to 0.080 mg/ml with 10 mM 4-morpholineethanesulfonic acid (MES) pH 6.5 and then mounted on the activated Biacore CM5 chip at a flow rate of 10 μl/min for 240 seconds. When successfully mounted, a signal of approximately 8,000 reflective units was observed. Test compounds were diluted 9 times 2-fold serially in mobile phase buffer (listed above) at 1% v/v DMSO final to generate a concentration gradient bracketing their anticipated KDs. Biacore mounted PARP was given a 1 minute exposure (association phase) to various concentrations of test compounds to observe a steady state equilibrium or an on rate. The exposure was followed with a dissociation phase of 5 minutes. The association and dissociation phases were at a flow rate of 50 μl/min and a temperature of 25° C.
Parameters Rmax (response at saturation) and KD (binding constant) were calculated through a nonlinear least squares fitting of the equation to the data by use of the Biacore T100 analysis software.
Parameter optimization was through a nonlinear least squares analysis of the association phase Response=Rmax*(1−exp(−(kon[cmpd]+koff)*t)) and dissociation phase Response=[…] by use of the Biacore T100 analysis software. The binding constant KD was calculated from the definition KD=koff/kon
(In general: SPR reads the build-up and loss of mass on a sensor chip optically.)

Usually IC50 stands for the concentration at which inhibition is half-maximal. Lower therefore signals greater potency. One may read the melting point as the temperature, or range, at which the solid turns liquid. In general, Kd refers to the free concentration of one partner at which half of the binding sites on the other are occupied at equilibrium, for simple one-to-one binding. Higher therefore signals lower affinity.

T1 sequence (P09874 whole entry): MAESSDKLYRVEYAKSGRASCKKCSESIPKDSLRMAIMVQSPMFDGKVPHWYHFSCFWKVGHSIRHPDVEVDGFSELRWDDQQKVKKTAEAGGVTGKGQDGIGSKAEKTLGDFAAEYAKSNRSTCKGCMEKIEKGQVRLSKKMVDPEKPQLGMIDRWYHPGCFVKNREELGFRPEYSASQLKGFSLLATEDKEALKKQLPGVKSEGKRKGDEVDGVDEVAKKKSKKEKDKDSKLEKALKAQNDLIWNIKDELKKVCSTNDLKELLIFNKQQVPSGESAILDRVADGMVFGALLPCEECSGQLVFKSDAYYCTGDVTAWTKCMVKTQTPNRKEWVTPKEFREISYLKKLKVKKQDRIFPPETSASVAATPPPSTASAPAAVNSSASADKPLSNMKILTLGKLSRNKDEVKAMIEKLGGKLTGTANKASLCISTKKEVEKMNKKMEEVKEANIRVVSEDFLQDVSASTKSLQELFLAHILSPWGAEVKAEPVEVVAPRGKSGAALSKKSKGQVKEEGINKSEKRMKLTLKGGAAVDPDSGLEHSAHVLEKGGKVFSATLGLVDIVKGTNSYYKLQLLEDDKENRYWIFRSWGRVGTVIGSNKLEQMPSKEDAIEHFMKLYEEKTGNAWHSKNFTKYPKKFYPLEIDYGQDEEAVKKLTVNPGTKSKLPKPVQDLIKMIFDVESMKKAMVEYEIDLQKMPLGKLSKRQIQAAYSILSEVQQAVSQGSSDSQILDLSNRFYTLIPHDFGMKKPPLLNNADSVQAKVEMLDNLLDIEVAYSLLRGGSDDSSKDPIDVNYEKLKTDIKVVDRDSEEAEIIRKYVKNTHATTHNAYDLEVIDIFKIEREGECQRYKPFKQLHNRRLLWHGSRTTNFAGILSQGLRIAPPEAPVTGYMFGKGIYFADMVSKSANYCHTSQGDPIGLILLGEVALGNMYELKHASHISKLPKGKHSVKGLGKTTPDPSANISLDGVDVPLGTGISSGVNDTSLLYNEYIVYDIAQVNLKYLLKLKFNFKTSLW
T2 sequence (P09874 788-1014 limits assumed): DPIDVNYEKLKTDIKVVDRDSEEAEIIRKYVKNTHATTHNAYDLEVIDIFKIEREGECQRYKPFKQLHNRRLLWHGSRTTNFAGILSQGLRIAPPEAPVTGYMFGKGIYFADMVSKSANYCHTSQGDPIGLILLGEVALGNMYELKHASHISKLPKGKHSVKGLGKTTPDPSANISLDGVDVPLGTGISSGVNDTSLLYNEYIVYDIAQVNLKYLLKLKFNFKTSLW

Molecule `CN(C)C(=O)c1ccc(N2CCN(Cc3cnc4c(c3)NC(=O)[C@@H]3CCCN43)CC2)cc1` [Compound 139, (S)—N,N-dimethyl-4-(4-((6-oxo-5,6,6a,7,8,9-hexahydropyrido[3,2-e]pyrrolo[1,2-a]pyrazin-3-yl)methyl)piperazin-1-yl)benzamide] had a melting point of 99.2 °C. In addition, the IC50 in data set [1] was at least 50.1 nM. In addition, the PF50 result in data set [2] is on record as “≧0”.

In turn, `CCN(C)C(=O)c1ccc(N2CCN(Cc3cnc4c(c3)NC(=O)[C@@H]3CCCN43)CC2)cc1` [Compound 140, (S)—N-ethyl-N-methyl-4-(4-((6-oxo-5,6,6a,7,8,9-hexahydropyrido[3,2-e]pyrrolo[1,2-a]pyrazin-3-yl)methyl)piperazin-1-yl)benzamide] yielded a melting point of 91.9 °C. Moreover, the 50% inhibitory concentration (IC50) in data set [1] is at least 50.1 nM. In addition, in data set [2], the PF50 result is “≧0”.

Take `O=C1Nc2cc(CN3CCN(c4ccc(C(=O)N5CCCC5)cc4)CC3)cnc2N2CCC[C@@H]12` [Compound 138, (S)-3-((4-(4-(pyrrolidine-1-carbonyl)phenyl)piperazin-1-yl)methyl)-6a,7,8,9-tetrahydropyrido[3,2-e]pyrrolo[1,2-a]pyrazin-6(5H)-one]: the melting point amounted to 121.3 °C. Besides, the half-maximal inhibitory concentration (IC50) in data set [1] is at least 50.1 nM. Further, the PF50 entry in data set [2] is “≧0”.

As for `N#Cc1ccc(N2CCN(Cc3cnc4c(c3)NC(=O)[C@@H]3CCCN43)CC2)c(F)c1` [Compound 14, (S)-3-fluoro-4-(4-((6-oxo-5,6,6a,7,8,9-hexahydropyrido[3,2-e]pyrrolo[1,2-a]pyrazin-3-yl)methyl)piperazin-1-yl)benzonitrile], the melting point is 226 °C. Also, the PF50 in data set [2] is over 500.

With `Cc1cc(C(=O)NC2CC2)ccc1N1CCN(Cc2cnc3c(c2)NC(=O)[C@@H]2CCCN32)CC1` [Compound 142, (S)—N-cyclopropyl-3-methyl-4-(4-((6-oxo-5,6,6a,7,8,9-hexahydropyrido[3,2-e]pyrrolo[1,2-a]pyrazin-3-yl)methyl)piperazin-1-yl)benzamide], the melting point is 226.7 to 233.5 °C. For the same molecule, in data set [1], the IC50 is at most 12.6 nM. In addition, the PF50 in data set [2] is recorded as over 2000.

As for `N#Cc1ccc(N2CCN(Cc3cnc4c(c3)NC(=O)[C@@H]3CCCN43)CC2)c(Cl)c1` [Compound 16, (S)-3-chloro-4-(4-((6-oxo-5,6,6a,7,8,9-hexahydropyrido[3,2-e]pyrrolo[1,2-a]pyrazin-3-yl)methyl)piperazin-1-yl)benzonitrile], the melting point lay within 213 to 215 °C. Besides, the PF50 in data set [2] was over 500.

For `N#Cc1cc(F)c(N2CCN(Cc3cnc4c(c3)NC(=O)[C@@H]3CCCN43)CC2)cc1F` [Compound 17, (S)-2,5-difluoro-4-(4-((6-oxo-5,6,6a,7,8,9-hexahydropyrido[3,2-e]pyrrolo[1,2-a]pyrazin-3-yl)methyl)piperazin-1-yl)benzonitrile], the melting point was 224 to 227 °C. Further, in data set [2], the PF50 is over 2000.

Molecule `CCOC(=O)c1ccc(N2CCN(Cc3cnc4c(c3)NC(=O)[C@@H]3CCCN43)CC2)cc1` [Compound 101, (S)-ethyl 4-(4-((6-oxo-5,6,6a,7,8,9-hexahydropyrido[3,2-e]pyrrolo[1,2-a]pyrazin-3-yl)methyl)piperazin-1-yl)benzoate] yielded a melting point of 242 °C. This molecule also showed an IC50 in data set [1] of at least 50.1 nM. Moreover, the PF50 in data set [2] is on record as over 10.

Consider `O=C1Nc2cc(CN3CC=C(c4ccc(Cl)cc4)CC3)cnc2N2CCC[C@@H]12` [Compound 2, (S)-3-((4-(4-chlorophenyl)-5,6-dihydropyridin-1(2H)-yl)methyl)-6a,7,8,9-tetrahydropyrido[3,2-e]pyrrolo[1,2-a]pyrazin-6(5H)-one], for which the melting point was in the range of 234 to 235 °C. The molecule also had a Kd in data set [3] of under 31.6 nM. Moreover, in data set [2], the PF50 is recorded as over 2000.

Turning to `CCNC(=O)c1ccc(N2CCN(Cc3cnc4c(c3)NC(=O)[C@@H]3CCCCN43)CC2)cc1` [Compound 73, (S)—N-ethyl-4-(4-((6-oxo-6,6a,7,8,9,10-hexahydro-5H-dipyrido[1,2-a:3′,2′-e]pyrazin-3-yl)methyl)piperazin-1-yl)benzamide], the melting point worked out at 232.6 °C. For the same molecule, the 50% inhibitory concentration (IC50) in data set [1] was at most 12.6 nM. Also, the PF50 in data set [2] is recorded as over 2000.

`O=C1Nc2cc(CN3CCN(c4ccc(Cl)cc4)CC3)cnc2N2CCC[C@@H]12` [Compound 1, (S)-3-((4-(4-chlorophenyl)piperazin-1-yl)methyl)-6a,7,8,9-tetrahydropyrido[3,2-e]pyrrolo[1,2-a]pyrazin-6(5H)-one] returned a melting point of 265 to 268 °C. Also, the PF50 in data set [2] is over 500.

For `O=C(NC1CC1)c1ccc(N2CCN(Cc3cnc4c(c3)NC(=O)[C@@H]3CCCN43)CC2)cc1` [Compound 13, (S)—N-cyclopropyl-4-(4-((6-oxo-5,6,6a,7,8,9-hexahydropyrido[3,2-e]pyrrolo[1,2-a]pyrazin-3-yl)methyl)piperazin-1-yl)benzamide], the melting point lay in the range of 265 to 268 °C. The same molecule showed a 50% inhibitory concentration (IC50) in data set [1] of 15.8 to 39.8 nM. The PF50 in data set [2] is recorded as over 5000.

In the case of `N#Cc1ccc(N2CCN(Cc3cnc4c(c3)NC(=O)[C@@H]3CCCN43)CC2)cc1` [Compound 4, (S)-4-(4-((6-oxo-5,6,6a,7,8,9-hexahydropyrido[3,2-e]pyrrolo[1,2-a]pyrazin-3-yl)methyl)piperazin-1-yl)benzonitrile], the melting point worked out at 252 °C. Besides, in data set [1], the IC50 was 15.8 to 39.8 nM. Moreover, the PF50 in data set [2] is listed as over 2000.

`N#Cc1ccc(N2CCN(Cc3cnc4c(c3)NC(=O)[C@@H]3CCCN43)CC2)cc1F` [Compound 21, (S)-2-fluoro-4-(4-((6-oxo-5,6,6a,7,8,9-hexahydropyrido[3,2-e]pyrrolo[1,2-a]pyrazin-3-yl)methyl)piperazin-1-yl)benzonitrile] returned a melting point of 251 to 255 °C. Also, the PF50 in data set [2] is reported as over 2000.

Regarding `N#Cc1ccc(N2CCN(Cc3cnc4c(c3)NC(=O)[C@@H]3CCCCN43)CC2)cc1` [Compound 71, (S)-4-(4-((6-oxo-6,6a,7,8,9,10-hexahydro-5H-dipyrido[1,2-a:3′,2′-e]pyrazin-3-yl)methyl)piperazin-1-yl)benzonitrile], the melting point was 212.2 °C. In data set [1], this molecule showed an IC50 of at most 12.6 nM. In addition, the PF50 in data set [2] is reported as over 500.

`N#Cc1ccc(N2CCN(Cc3cnc4c(c3)NC(=O)[C@@H]3CCCN43)CC2)nc1` [Compound 5, (S)-6-(4-((6-oxo-5,6,6a,7,8,9-hexahydropyrido[3,2-e]pyrrolo[1,2-a]pyrazin-3-yl)methyl)piperazin-1-yl)nicotinonitrile]: the melting point was in the range of 252 to 256 °C. For the same molecule, in data set [3], the equilibrium dissociation constant (Kd) is under 31.6 nM. Moreover, in data set [1], the 50% inhibitory concentration (IC50) is 15.8 to 39.8 nM. The PF50 in data set [2] is recorded as over 5000.
